Legend:
[1] = Pharmacokinetic studies of 4-CNAB after oral administration in mice; assay type: in vivo
[2] = Pharmacokinetic studies of 4-CNAB after oral administration in rats; assay type: in vivo
[3] = Genotoxicity studies; conditions: four genotoxicity studies
[4] = tested on: primary molecular targets; assay: Receptor binding screening assays
[5] = Open-label single-dose crossover study of oral Insulin/4-CNAB in type 2 diabetic subjects (fasting / standard meal); assay type: in vivo, human
Description: In the first part of the study, twenty-four human diabetic subjects (patients) of age 35-70 years, with elevated fasting blood glucose levels but in otherwise good general health on the basis of a medical history, physical examination and clinical laboratory studies, participated in the study and were studied in the overnight-fasted state on two occasions, separated by an interval of at least 7 days.

[6] = 14-day oral repeated dose toxicity study in monkeys; conditions: rhesus monkey, in vivo, 14 days
Description: In toxicology studies, 4-CNAB doses from 400 mg to 2000 mg were evaluated.

[7] = Pharmacokinetic studies of 4-CNAB after oral administration in monkeys; assay type: in vivo

For O=C(O)CCCNC(=O)c1ccc(Cl)cc1O [4-CNAB, monosodium N-(4-chlorosalicyloyl)-4-aminobutyrate], the “4-CNAB absorption following oral administration” value [1] was “absorbed rapidly”, the “4-CNAB absorption following oral administration” value [2] was “absorbed rapidly” and the genotoxicity findings [3] was “no positive findings”. For the same molecule, the “activity in primary molecular targets in receptor binding screening assays” value [4] was “did not demonstrate potential activity”, the “tolerability of 4-CNAB” value [5] was “well tolerated” and the “time of 4-CNAB concentration peak post administration” value ([5]; oral capsules) was “about 30 minutes”. The “highest proposed dose of 2000 mg 4-CNAB in man (<30 mg/kg) lower than the NOAEL in monkeys” value [6] was 12-16 fold and the “4-CNAB absorption following oral administration” value [7] was “absorbed rapidly”.
